Experimental data taken from patent publication US20240132464A1, “HETEROCYCLIC COMPOUNDS AS E3 LIGASE INHIBITORS” (Accutar Biotechnology Inc., priority 2022, published 2024).

Molecular target: T1, GID4 (Uniprot ID: Q81VV7, residues 124-289) (Homo sapiens, UniProt Q8IVV7)
T1 construct: GID4 (Uniprot ID: Q81VV7, residues 124-289)
T1 sequence (Q8IVV7 124-289): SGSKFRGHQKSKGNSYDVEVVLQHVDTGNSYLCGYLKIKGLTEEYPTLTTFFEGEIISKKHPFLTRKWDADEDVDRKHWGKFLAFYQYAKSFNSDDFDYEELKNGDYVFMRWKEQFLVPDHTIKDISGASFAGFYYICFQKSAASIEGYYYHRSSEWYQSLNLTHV
Experiment: GID4 competitive binding assay (AlphaScreen, GID4/degron peptide PGLW)
Details: 24 nM GID4, 48 nM biotinylated degron peptide PGLW, 4° C., read-out: IC50 (Inhibition of GID4/Degron binding by test compounds)
Outline: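 His-tagged human GID4 (residues 124-289, 24 nM) pre-incubated 2 h at 4 °C with 48 nM biotinylated PGLW peptide and compound in HEPES pH 7.5 buffer, 2% DMSO (final). AlphaScreen streptavidin donor/Ni-NTA acceptor beads added for 1 h; IC50 from nonlinear fit of % inhibition versus DMSO.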

| IC50 [nM] | SMILES |
| --- | --- |
| > 5000 | Nc1nc(NC2CC2)cc(N2CCOC(c3ccccc3)C2)n1 (single isomer, unassigned) [Compound 96, (R/S)-N4-cyclopropyl-6-(2-phenylmorpholino)pyrimidine-2,4-diamine] |
| 500 to 5000 | Nc1nc(N2CCN[C@@H](c3ccccc3Br)C2)c2cc[nH]c2n1 (racemic) [Compound 57, (S/R)-4-(3-(2-bromophenyl)piperazin-1-yl)-7H-pyrrolo[2,3-d]pyrimidin-2-amine] |
| < 500 | CC(C)c1cc(N2CCNC(c3cc(C(=O)N4CCN(C)CC4)ccc3Br)C2)nc(N)n1 (single isomer, unassigned) [Compound 17, (R/S)-(3-(4-(2-amino-6-isopropylpyrimidin-4-yl)piperazin-2-yl)-4-bromophenyl)(4-methylpiperazin-1-yl)methanone] |
| 500 to 5000 | Nc1cc(Nc2cccc(-c3cnccn3)c2)nc(N)n1 [Compound 192, N4-(3-(pyrazin-2-yl)phenyl)pyrimidine-2,4,6-triamine] |
| 500 to 5000 | CC(C)c1cc(N2CCCC(c3nn(C)c4ccccc34)C2)nc(N)n1 (stereo not drawn) [Compound 232, 4-isopropyl-6-(3-(1-methyl-1H-indazol-3-yl)piperidin-1-yl)pyrimidin-2-amine] |
| > 5000 | CC(C)c1cc(N2CC[C@@H](F)[C@@H](c3ncn4ccccc34)C2)nc(N)n1 (racemic) [Compound 229, 4-((3R,4R)-4-fluoro-3-(imidazo[1,5-a]pyridin-1-yl)piperidin-1-yl)-6-isopropylpyrimidin-2-amine] |
| < 500 | Nc1cc(N2CCOC(c3ccccc3Br)C2)nc(N)n1 (single isomer, unassigned) [Compound 146, (S/R)-6-(2-(2-bromophenyl)morpholino)pyrimidine-2,4-diamine] |
| 500 to 5000 | CNc1cc(N2CCCC(c3cnc4ccccn34)C2)nc(NC)n1 (racemic) [Compound 124, (R/S)-6-(3-(imidazo[1,2-a]pyridin-3-yl)piperidin-1-yl)-N2,N4-dimethylpyrimidine-2,4-diamine] |
| < 500 | Nc1cc(N2CCNC(c3ccccc3C(F)(F)F)C2)nc(N)n1 (stereo not drawn) [Compound 54, 6-(3-(2-(trifluoromethyl)phenyl)piperazin-1-yl)pyrimidine-2,4-diamine] |
| > 5000 | CC(=O)N1CCN(c2cc(N)nc(N)n2)C[C@@H]1c1ccccc1Br (stereo in doubt) [Compound 59, (S/R)-1-(2-(2-bromophenyl)-4-(2,6-diaminopyrimidin-4-yl)piperazin-1-yl)ethan-1-one] |
| < 500 | CC(C)c1cc(N2CCNC(c3ccccc3Br)C2)nc(N)n1 (stereo not drawn) [Compound 183, 4-(3-(2-bromophenyl)piperazin-1-yl)-6-isopropylpyrimidin-2-amine] |
| 500 to 5000 | O=C1NCCc2cc(-c3cccc(C(=O)N4CCCC4)c3)ccc21 [Compound 278, 6-(3-(pyrrolidine-1-carbonyl)phenyl)-3,4-dihydroisoquinolin-1(2H)-one] |
| > 5000 | CN(C)CCNC(=O)c1c[nH]c2ncc(-c3ccc4ccnc(N)c4c3)cc12 [Compound 8, 5-(1-aminoisoquinolin-7-yl)-N-(2-(dimethylamino)ethyl)-1H-pyrrolo[2,3-b]pyridine-3-carboxamide] |
| 500 to 5000 | Nc1nc(N2CCO[C@@H](c3ccccc3Br)C2)c2cc[nH]c2n1 (racemic) [Compound 40, (S/R)-4-(2-(2-bromophenyl)morpholino)-7H-pyrrolo[2,3-d]pyrimidin-2-amine] |
| 500 to 5000 | CC(C)c1cc(N2CCCNC(c3ccccc3Br)C2)nc(N)n1 (stereo not drawn) [Compound 220, 4-(3-(2-bromophenyl)-1,4-diazepan-1-yl)-6-isopropylpyrimidin-2-amine] |
| < 500 | CN1CCN(c2ccc(Br)c(C3CN(c4cc(N)nc(N)n4)CCN3)c2)CC1 (single isomer, unassigned) [Compound 50, R or S 6-(3-(2-bromo-5-(4-methylpiperazin-1-yl)phenyl)piperazin-1-yl)pyrimidine-2,4-diamine] |
| < 500 | CC(C)c1cc(N2CCN[C@H](c3cnc4ccccn34)C2)c2nc[nH]c2n1 (stereo in doubt) [Compound 369, (S/R)-7-(3-(imidazo[1,2-a]pyridin-3-yl)piperazin-1-yl)-5-isopropyl-3H-imidazo[4,5-b]pyridine] |
| < 500 | CCc1cc(N2CCNC(c3cnc4ccccn34)C2)nc(N)n1 (single isomer, unassigned) [Compound 28, (S/R)-4-ethyl-6-(3-(imidazo[1,2-a]pyridin-3-yl)piperazin-1-yl)pyrimidin-2-amine] |
| 500 to 5000 | CN(C)CCCNC(=O)c1ccc(-c2cc(O)c3ncccc3c2)cc1Br [Compound 313, 2-bromo-N-(3-(dimethylamino)propyl)-4-(8-hydroxyquinolin-6-yl)benzamide] |
| < 500 | CN(C)CCCNC(=O)c1cc(F)c(-c2cc(O)c3ncccc3c2)cc1Cl [Compound 315, 2-chloro-N-(3-(dimethylamino)propyl)-5-fluoro-4-(8-hydroxyquinolin-6-yl)benzamide] |

| IC50 [nM] | SMILES |
| --- | --- |
| > 5000 | Nc1nc(C2CC2)cc(N2CCCC(c3ccn[nH]3)C2)n1 (stereo not drawn) [Compound 211, 4-(3-(1H-pyrazol-5-yl)piperidin-1-yl)-6-cyclopropylpyrimidin-2-amine] |
| < 500 | Cc1c(-c2ccc(Br)c(C3CN(c4cc(C(C)C)nc(N)n4)CCN3)c2)cnn1C (single isomer, unassigned) [Compound 6, R or S-4-(3-(2-bromo-5-(1,5-dimethyl-1H-pyrazol-4-yl)phenyl)piperazin-1-yl)-6-isopropylpyrimidin-2-amine] |
| > 5000 | CNc1cc(N2CCCC(c3nnc4ccccn34)C2)nc(N)n1 (stereo not drawn) [Compound 180, 6-(3-([1,2,4]triazolo[4,3-a]pyridin-3-yl)piperidin-1-yl)-N4-methylpyrimidine-2,4-diamine] |
| 500 to 5000 | CC(C)c1cc(-c2cc(-c3ccnn3C)c3cccc(-c4cc[nH]n4)c3n2)cc(N)n1 [Compound 367, 6-isopropyl-4-(4-(1-methyl-1H-pyrazol-5-yl)-8-(1H-pyrazol-3-yl)quinolin-2-yl)pyridin-2-amine] |
| < 500 | Nc1nc(C2CC2)cc(N2CCCC(c3cnc4ccccn34)C2)n1 (stereo not drawn) [Compound 139, 4-cyclopropyl-6-(3-(imidazo[1,2-a]pyridin-3-yl)piperidin-1-yl)pyrimidin-2-amine] |
| > 5000 | Nc1nc(N2CCCC(c3ccn[nH]3)C2)c2ccccc2n1 (stereo not drawn) [Compound 213, 4-(3-(1H-pyrazol-5-yl)piperidin-1-yl)quinazolin-2-amine] |
| < 500 | CN(C)CCCNC(=O)c1cc(-c2cc(O)c3ncccc3c2)co1 [Compound 283, N-(3-(dimethylamino)propyl)-4-(8-hydroxyquinolin-6-yl)furan-2-carboxamide] |
| < 500 | CC(C)c1nc(N)cc(N2CCO[C@@H](c3ccccc3Br)C2)n1 (racemic) [Compound 72, (S/R)-6-(2-(2-bromophenyl)morpholino)-2-isopropylpyrimidin-4-amine] |
| > 5000 | Nc1nc(N)c(Cl)c(N2CCNC(c3ccccc3Br)C2)n1 (stereo not drawn) [Compound 68, 6-(3-(2-bromophenyl)piperazin-1-yl)-5-chloropyrimidine-2,4-diamine] |
| > 5000 | Nc1nc2c(c(N3CCNC(c4ccccc4Br)C3)n1)CSC2 (stereo not drawn) [Compound 189, 4-(3-(2-bromophenyl)piperazin-1-yl)-5,7-dihydrothieno[3,4-d]pyrimidin-2-amine] |
| < 500 | CCOc1ccc(Br)c(C2CN(c3cc(C(C)C)nc(N)n3)CCN2)c1 (single isomer, unassigned) [Compound 25, (R/S)-4-(3-(2-bromo-5-ethoxyphenyl)piperazin-1-yl)-6-isopropylpyrimidin-2-amine] |
| 500 to 5000 | CC(C)c1cc(N2CCNC(c3cc(Br)ccc3Br)C2)nc(N)n1 (stereo not drawn) [Compound 200, 4-(3-(2,5-dibromophenyl)piperazin-1-yl)-6-isopropylpyrimidin-2-amine] |
| > 5000 | CNc1cc(N2CCCC(n3nnc4ccccc43)C2)nc(N)n1 (stereo not drawn) [Compound 93, 6-(3-(1H-benzo[d][1,2,3]triazol-1-yl)piperidin-1-yl)-N4-methylpyrimidine-2,4-diamine] |
| 500 to 5000 | CNc1nc(N)cc(N2CCCC(c3cnc4ccccn34)C2)n1 (racemic) [Compound 117, (S/R)-6-(3-(imidazo[1,2-a]pyridin-3-yl)piperidin-1-yl)-N2-methylpyrimidine-2,4-diamine] |
| 500 to 5000 | CC(C)c1cc(N2CCNC(c3csc4ccccc34)C2)nc(N)n1 (stereo not drawn) [Compound 162, 4-(3-(benzo[b]thiophen-3-yl)piperazin-1-yl)-6-isopropylpyrimidin-2-amine] |
| < 500 | CNc1cc(N2CCCC(c3cnc4ccccn34)C2)nc(C(C)C)n1 (single isomer, unassigned) [Compound 126, (R/S)-6-(3-(imidazo[1,2-a]pyridin-3-yl)piperidin-1-yl)-2-isopropyl-N-methylpyrimidin-4-amine] |
| < 500 | CN(C)CCCNC(=O)c1cnc(-c2cc(O)c3ncccc3c2)cn1 [Compound 276, N-(3-(dimethylamino)propyl)-5-(8-hydroxyquinolin-6-yl)pyrazine-2-carboxamide] |
| < 500 | Cn1cc(CNC(=O)c2n[nH]c3ccc(-c4ccc5ccnc(N)c5c4)cc23)cn1 [Compound 328, 5-(1-aminoisoquinolin-7-yl)-N-((1-methyl-1H-pyrazol-4-yl)methyl)-1H-indazole-3-carboxamide] |
| 500 to 5000 | CN(C)CCNC(=O)c1n[nH]c2ccc(-c3ccc4ncnc(N)c4c3)cc12 [Compound 329, 5-(4-aminoquinazolin-6-yl)-N-(2-(dimethylamino)ethyl)-1H-indazole-3-carboxamide] |
